From US20190054103A1, “METHOD OF TREATMENT OF TP53 WILD-TYPE TUMORS WITH 2',2'-DIFLUORO-5-AZA-2'-DEOXYCYTIDINE OR PRODRUGS THEREOF” (priority 2016, published 2019)

Experiments:
[1] = in vivo
[2] = test system: HL-60 (leukemia, TP null); conditions: HL-60 nude mice
[3] = test system: LoVo (colon cancer, TP WT); assay: Xenograft model, nude mice implanted with LoVo; conditions: NUC041 treatment, 8 days following the end of treatment
[4] = Pharmacokinetics after SC administration of NUC041 in phospholipid gel depot to mice; conditions: analyte in plasma following SC administration of NUC041 (100 mg/kg) to mice
[5] = test system: TP53 WT colon cancer cell line Ls174T; assay: CellTiter-Glo growth inhibition, Ls174T; type: cell-based; conditions: 72-hour exposure, FIG. 1
Procedure: (§1) Two examples of additional comparisons are provided below for colon cancer cell lines (TP53 WT colon cancer cell line Ls174T and TP53 WT colon cancer cell line LoVo).
(§2) In these assays, two 96 well plates of each cell line were seeded with 5,000 cells per well in a total volume of […] per well and left incubating overnight. The following day, the cells were exposed to different concentrations of NUC013. At the end of a 72-hour exposure period, the plates were removed for CellTiter-Glo® assay. Luminescence was recorded on a Synergy 4.0.

[6] = test system: TP53 WT colon cancer cell line LoVo; assay: CellTiter-Glo growth inhibition, LoVo; type: cell-based; conditions: 72-hour exposure, FIG. 2
Procedure: as §1, §2

HeLa cells = assay: Nucleotide concentrations in HeLa cell extracts by HPLC (RNR inhibition); type: cell-based; conditions: 50 μM, 16 h incubation
Source text: The more common approach is to synthesize a nucleoside diphosphate and then determine whether it inhibits RNR or p53R2. […] Nucleic Acids Research. […] The other approach is to expose cells in tissue culture to the drug and then attempt to determine whether deoxynucleotide synthesis is inhibited when compared to control cells. Measurement of deoxynucleotides may be done by radioimmunoassay or by HPLC. The disadvantage of a radioimmunoassay is that it can only measure a single deoxynucleotide triphosphate (dNTP) at a time and typically requires a tritiated nucleotide, but it is the preferred method for measuring dCTP [Piall E M, Aherne G W, Marks V. The quantitative determination of 2′-deoxycytidine-5′ triphosphate in cell extracts by radioimmunoassay. Anal Biochem. 1986; 154(1):276-281 incorporated herein by reference in its entirety]. On the other hand, HPLC can measure multiple nucleotides without requiring radiolabeling, but has been noted to quantitate poorly dC nucleotides, possibly as an artifact of an influx of dCTP from the medium [Bianchi V, Pontis E, Reichard P. Changes of deoxyribonucleoside triphosphate pools induced by hydroxyurea and their relation to DNA synthesis. J Biol Chem. 1986; 261(34): 16037-16042 incorporated herein by reference in its entirety]. This approach was used to determine RNR inhibition by NUC013.
Briefly, HeLa cells ([…]) were grown in the presence or absence of drug, in this case gemcitabine or NUC013. At the end of a 16 h incubation, the medium was aspirated, cells monolayers washed twice with PBS, and used for nucleotide extraction. The nucleotides were extracted from cell monolayers by the addition of ice-cold 80% acetonitrile (ACN) for 1 h. The extracts were centrifuged to remove cellular debris and loaded on a SAX column (100 mg, Supelco) pre-conditioned with methanol, water and ACN. Once the sample was completely effused, the cartridge was washed with 3 ml 80% ACN and 3 ml water and eluted with 1M KCl. The eluent was filtered through a 0.45 μm filter membrane (Roth) and analyzed by HPLC. Peak identification of the different nucleoside mono-, di-, and triphosphates, was made from their characteristic UV absorption spectra and retention times compared with those of a mixture of standards run immediately before cell extracts. The area of individual peaks was measured using ChemStation software (Agilent).

Molecule: C[Si](C)(C)OC[C@H]1O[C@@H](n2cnc(N)nc2=O)C(F)(F)[C@@H]1O[Si](C)(C)C [NUC041, 4-amino-1-((2R,4R,5R)-3,3-difluoro-4-(trimethylsilyloxy)-5-((trimethylsilyloxy)methyl)tetrahydrofuran-2-yl)-1,3,5-triazin-2(1H)-one]
- pharmacokinetic advantage over NUC013 [1]: did not demonstrate a pharmacokinetic advantage over NUC013
- hazard ratio (HR) vs saline control ([2]; 31 mg/kg intravenously, oil in water emulsion): 0.51
- tumor weights less than saline controls [3]: 26.6%
- AUClast (area under the plasma concentration versus time curve from 0 to last quantifiable sampling time) [4]: 20.0 ng·h/mL

Molecule: Nc1ncn([C@H]2C[C@H](O)[C@@H](CO)O2)c(=O)n1 [Decitabine, 4-amino-1-((2R,4S,5R)-4-hydroxy-5-(hydroxymethyl)tetrahydrofuran-2-yl)-1,3,5-triazin-2(1I)-one]
- mice dead or moribund prior to the conclusion of the study ([2]; 5 mg/kg per day for three consecutive days a week for three weeks): Four of ten

Molecule: 4-amino-1-((2R,4R,5R)-3,3-difluoro-4- hydroxy-5- (hydroxymethyl)tetrahydrofuran-2- yl)pyrimidin-2(1I)-one hydrochloride [Gemcitabine, reference compound]
- GI50 [5]: > 50 µM
- GI50 [6]: > 50 µM
- ADP (HeLa cells): 15,639
- ATP (HeLa cells): 26,296
- CTP (HeLa cells): 1,297
- GTP (HeLa cells): 2,036
- UTP (HeLa cells): 4,801
- dATP, peak area, AU (HeLa cells): 0 AU
- dGDP, peak area, AU (HeLa cells): 7.95 AU
- dTDP, peak area, AU (HeLa cells): 43.4 AU
- dUTP, peak area, AU (HeLa cells): 5.3 AU
